Experiments:
[1] = Cytotoxicity against Biomphalaria alexandrina incubated for 24 hrs relative to control; parameters: concentration or dose not given beside the values
Schistosoma mansoni [2] = assay: Antischistosomal activity against Schistosoma mansoni Puerto-Rican assessed as worm mortality incubated for 5 days by stereomicroscopic method; format: functional, organism-based; details: 120 h
[3] = Cytotoxicity against Biomphalaria alexandrina incubated for 24 hrs
Schistosoma mansoni [4] = assay: Antischistosomal activity against Schistosoma mansoni Egyptian assessed as worm mortality incubated for 5 days by stereomicroscopic method; format: functional, organism-based; details: 120 h
Schistosoma mansoni [5] = assay: Antischistosomal activity against Schistosoma mansoni assessed as worm mortality at 5 ug/ml incubated for 5 days by stereomicroscopic method relative to control; format: functional; details: 120 h, time 5 day
Schistosoma mansoni [6] = assay: Antischistosomal activity against Schistosoma mansoni infected in NMRI mouse assessed as worm burden reduction at 200 mg/kg, po administered as single dose and measured after 17 to 21 days relative to control; format: functional, organism-based; parameters: scale not given: the % may be the effect or the level left; details: time 17-21 day
Schistosoma mansoni [7] = assay: microbe, parasite or virus in culture; details: Liberian, 72 h
Description: Antischistosomal activity against Schistosoma mansoni Liberian NTS incubated for 72 hrs by microscopic method

Schistosoma haematobium [8] = assay: Antischistosomal activity against Schistosoma haematobium at 10 uM measured after 72 hrs relative to control; format: functional
Schistosoma mansoni [9] = assay: microbe, parasite or virus in culture; details: 72 h
Description: Antischistosomal activity against Schistosoma mansoni incubated for 72 hrs by inverted microscopic method

Schistosoma mansoni [10] = assay: Antischistosomal activity against Schistosoma mansoni Puerto Rican schistosomula assessed as effect on worm motility measured after 72 hrs; format: functional, organism-based
Schistosoma mansoni [11] = assay: Antischistosomal activity against Schistosoma mansoni Puerto Rican schistosomula assessed as effect on worm phenotype measured after 72 hrs; format: functional, organism-based
Schistosoma mansoni [12] = assay: Antischistosomal activity against Schistosoma mansoni infected in NMRI mouse assessed as worm burden reduction at 400 mg/kg, po administered […] for 4 consecutive days and measured after 14 days relative to control; format: functional; parameters: scale not given: the % may be the effect or the level left; details: time 14 day
Schistosoma mansoni [13] = assay: Antischistosomal activity against Schistosoma mansoni Puerto-Rican incubated for 72 hrs by inverted microscopic method; format: functional, organism-based
[14] = molecular target: T1, Protein deacetylase HDAC6 (Homo sapiens, UniProt Q9UBN7); assay: Inhibition of human HDAC6 using ZMAL(Cbz-(Ac)Lys-AMC as substrate preincubated for 90 mins followed by trypsin addition and measured after 20 mins by fluorimetric method
T1 sequence (Q9UBN7 whole entry): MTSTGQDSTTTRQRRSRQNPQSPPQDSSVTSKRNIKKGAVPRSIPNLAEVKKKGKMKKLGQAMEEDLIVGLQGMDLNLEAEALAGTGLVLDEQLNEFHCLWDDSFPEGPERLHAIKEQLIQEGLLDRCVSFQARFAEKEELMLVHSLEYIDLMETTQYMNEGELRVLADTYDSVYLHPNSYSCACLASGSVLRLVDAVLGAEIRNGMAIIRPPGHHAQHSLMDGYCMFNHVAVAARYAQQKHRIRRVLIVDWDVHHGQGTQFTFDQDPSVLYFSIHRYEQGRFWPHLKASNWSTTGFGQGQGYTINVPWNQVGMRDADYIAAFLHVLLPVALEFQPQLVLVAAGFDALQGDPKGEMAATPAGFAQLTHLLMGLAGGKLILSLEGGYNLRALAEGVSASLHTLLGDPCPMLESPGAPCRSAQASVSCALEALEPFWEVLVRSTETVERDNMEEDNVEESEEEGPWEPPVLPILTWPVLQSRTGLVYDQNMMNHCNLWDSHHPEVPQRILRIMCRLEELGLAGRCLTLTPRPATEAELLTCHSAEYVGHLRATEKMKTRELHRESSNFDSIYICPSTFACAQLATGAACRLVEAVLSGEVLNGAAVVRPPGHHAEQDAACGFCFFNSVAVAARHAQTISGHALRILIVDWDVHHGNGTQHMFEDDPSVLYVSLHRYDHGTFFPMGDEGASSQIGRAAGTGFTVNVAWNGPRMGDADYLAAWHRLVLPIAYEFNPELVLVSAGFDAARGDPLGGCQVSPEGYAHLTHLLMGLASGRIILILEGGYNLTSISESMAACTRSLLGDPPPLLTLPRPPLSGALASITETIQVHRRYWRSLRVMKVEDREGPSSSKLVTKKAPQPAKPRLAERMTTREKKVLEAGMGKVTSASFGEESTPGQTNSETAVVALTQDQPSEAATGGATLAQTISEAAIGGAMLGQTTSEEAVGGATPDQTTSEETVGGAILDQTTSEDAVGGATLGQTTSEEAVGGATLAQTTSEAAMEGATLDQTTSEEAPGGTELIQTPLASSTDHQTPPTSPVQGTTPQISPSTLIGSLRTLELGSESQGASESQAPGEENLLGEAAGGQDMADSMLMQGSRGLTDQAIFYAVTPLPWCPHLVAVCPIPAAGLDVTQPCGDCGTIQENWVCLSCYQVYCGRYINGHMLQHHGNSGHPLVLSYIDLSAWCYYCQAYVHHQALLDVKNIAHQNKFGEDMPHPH

Histone deacetylase 1 = Histone deacetylase 1 (Homo sapiens, UniProt Q13547); assay: Inhibition of human HDAC1 (1 to 482 reidue) expressed in sf9 cells using ZMAL(Cbz-(Ac)Lys-AMC as substrate preincubated for 90 mins followed by trypsin addition and measured after 20 mins by fluorimetric method
Chain of Histone deacetylase 1 (Q13547 whole entry): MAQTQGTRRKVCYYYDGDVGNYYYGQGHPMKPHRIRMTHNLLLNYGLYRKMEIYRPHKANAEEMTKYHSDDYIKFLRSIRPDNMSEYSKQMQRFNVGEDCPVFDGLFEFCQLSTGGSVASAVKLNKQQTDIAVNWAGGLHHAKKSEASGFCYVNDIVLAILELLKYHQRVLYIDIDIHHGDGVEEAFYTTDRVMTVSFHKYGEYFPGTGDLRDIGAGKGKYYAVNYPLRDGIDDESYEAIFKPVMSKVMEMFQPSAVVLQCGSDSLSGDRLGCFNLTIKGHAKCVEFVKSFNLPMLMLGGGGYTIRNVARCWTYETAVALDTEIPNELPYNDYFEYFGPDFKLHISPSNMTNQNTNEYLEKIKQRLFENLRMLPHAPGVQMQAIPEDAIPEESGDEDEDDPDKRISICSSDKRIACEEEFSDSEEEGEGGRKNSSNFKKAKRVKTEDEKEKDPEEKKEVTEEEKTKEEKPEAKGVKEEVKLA

Histone deacetylase 8 [15] = molecular target: T2, Histone deacetylase 8 (Schistosoma mansoni, UniProt A5H660); assay: Inhibition of Schistosoma mansoni HDAC8 expressed in Escherichia coli using Fluor de Lys as substrate incubated for 90 mins by fluorescence method
T2 sequence (A5H660 whole entry): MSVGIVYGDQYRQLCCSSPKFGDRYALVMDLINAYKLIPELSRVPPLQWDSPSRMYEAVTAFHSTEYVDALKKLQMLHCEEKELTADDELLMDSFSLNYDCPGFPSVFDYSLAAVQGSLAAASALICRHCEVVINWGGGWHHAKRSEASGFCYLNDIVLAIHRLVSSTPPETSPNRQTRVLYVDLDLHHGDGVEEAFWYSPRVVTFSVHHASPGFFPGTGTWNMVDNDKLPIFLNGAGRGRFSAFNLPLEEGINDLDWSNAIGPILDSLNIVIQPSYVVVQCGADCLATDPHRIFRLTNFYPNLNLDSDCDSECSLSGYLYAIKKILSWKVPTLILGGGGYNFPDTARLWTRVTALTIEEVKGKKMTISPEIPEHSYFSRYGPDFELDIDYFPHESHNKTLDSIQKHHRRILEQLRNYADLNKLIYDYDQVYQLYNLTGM

Histone deacetylase 8 [16] = molecular target: T3, Histone deacetylase 8 (Homo sapiens, UniProt Q9BY41); assay: Inhibition of human HDAC8 using Fluor de Lys as substrate incubated for 90 mins by fluorescence method
T3 sequence (Q9BY41 whole entry): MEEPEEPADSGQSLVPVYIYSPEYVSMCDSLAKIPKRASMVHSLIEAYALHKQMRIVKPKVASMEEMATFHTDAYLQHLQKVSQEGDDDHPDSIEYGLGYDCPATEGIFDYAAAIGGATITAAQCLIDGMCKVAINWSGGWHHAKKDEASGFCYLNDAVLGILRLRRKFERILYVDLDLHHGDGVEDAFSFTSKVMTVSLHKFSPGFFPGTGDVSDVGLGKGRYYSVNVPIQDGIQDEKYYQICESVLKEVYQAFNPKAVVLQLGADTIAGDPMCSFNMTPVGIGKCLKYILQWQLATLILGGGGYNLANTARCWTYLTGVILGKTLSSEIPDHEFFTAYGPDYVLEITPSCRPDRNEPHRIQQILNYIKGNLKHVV

Schistosoma mansoni [17] = assay: Antischistosomal activity against adult Schistosoma mansoni LE assessed as reduction in motor activity at 50 uM measured after 24 hrs by inverted microscopy relative to control; format: functional; parameters: scale not given: the % may be the effect or the level left
[18] = molecular target: T4, Thioredoxin glutathione reductase (Schistosoma mansoni, UniProt Q962Y6); assay: Inhibition of Schistosoma mansoni thioredoxin glutathione reductase incubated for 30 mins by DTNB assay
T4 sequence (Q962Y6 whole entry): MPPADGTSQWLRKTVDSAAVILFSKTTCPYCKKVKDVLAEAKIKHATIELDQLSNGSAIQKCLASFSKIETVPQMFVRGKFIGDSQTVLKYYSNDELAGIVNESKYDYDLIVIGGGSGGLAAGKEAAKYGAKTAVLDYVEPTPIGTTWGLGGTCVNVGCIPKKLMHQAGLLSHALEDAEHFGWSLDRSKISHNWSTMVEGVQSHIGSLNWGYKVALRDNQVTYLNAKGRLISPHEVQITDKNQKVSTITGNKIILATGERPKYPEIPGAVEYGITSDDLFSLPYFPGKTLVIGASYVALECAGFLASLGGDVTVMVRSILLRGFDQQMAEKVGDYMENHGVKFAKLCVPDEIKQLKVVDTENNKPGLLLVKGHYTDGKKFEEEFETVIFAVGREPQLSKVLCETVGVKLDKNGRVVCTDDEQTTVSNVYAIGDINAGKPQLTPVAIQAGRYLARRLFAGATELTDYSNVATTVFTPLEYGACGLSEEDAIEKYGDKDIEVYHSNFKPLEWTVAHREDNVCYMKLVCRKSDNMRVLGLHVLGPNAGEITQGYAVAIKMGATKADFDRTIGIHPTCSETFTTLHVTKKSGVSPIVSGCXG

Schistosoma mansoni [19] = assay: Antischistosomal activity against adult Schistosoma mansoni assessed as worm death at 10 uM incubated for 120 hrs relative to control; format: functional
Schistosoma japonicum = assay: Antischistosomal activity against Schistosoma japonicum assessed as worm death at 10 uM incubated for 120 hrs relative to control; format: functional; details: Schistosoma japonicum
Schistosoma mansoni [20] = assay: Antischistosomal activity against Schistosoma mansoni Schistosomula assessed as worm death at 10 uM incubated for 24 hrs relative to control; format: functional
Schistosoma mansoni [21] = assay: Antischistosomal activity against juvenile Schistosoma mansoni assessed as worm death at 10 uM incubated for 120 hrs relative to control; format: functional
Schistosoma mansoni [22] = assay: Antischistosomal activity against Schistosoma mansoni Liberian infected in NMRI mouse assessed as worm burden reduction at 200 mg/kg, po measured after 14 days relative to control; format: functional; parameters: scale not given: the % may be the effect or the level left; details: time 14 day
Schistosoma haematobium [23] = assay: Antischistosomal activity against Schistosoma haematobium assessed as worm death at 10 uM incubated for 120 hrs relative to control; format: functional

Which results are given for `Cn1c2nc3ccccc3c-2c(N2CCN(CCO)CC2)c2cc(Cl)ccc21`?
mortality [1]: 100%; IC50 (Schistosoma mansoni [2]): 3.29 µM; IC90 (Schistosoma mansoni [2]; time 5 day): 5.57 µM; LC50 [3]: 3.9 µM; LC90 [3]: 4.8 µM; IC50 (Schistosoma mansoni [4]): 1770 nM; IC90 (Schistosoma mansoni [4]; time 5 day): 4.55 µM; mortality at 5 µg/mL (Schistosoma mansoni [5]): 100%

Which Activity (Schistosoma mansoni [6]) does the source give for `CN1CCC(NCc2cccc(-c3ccc(S(=O)(=O)NCc4ccccc4)cc3)c2)CC1` here?
Its Activity is 67.8%.

And the IC50 (Schistosoma mansoni [7])?
Its IC50 is 2600 nM.

What about the Activity (Schistosoma haematobium [8]) of the same compound?
Its Activity is 75.4%.

What about the IC50 (Schistosoma mansoni [9]) of the same compound?
The IC50 was 3 µM.

Which results are given for `C=C[C@](C)(O)CCC1[C@](C)(O)CC[C@H]2C(C)(C)CCC[C@]12C` (stereo not given in full)?
IC50 (Schistosoma mansoni [10]): 12.3 µM; IC50 (Schistosoma mansoni [11]): 14.2 µM

With `COc1ccc(Nc2nc(NCc3ccccc3)c3ccccc3n2)cc1` as the compound, how does the Activity (Schistosoma mansoni [12]) read?
Its Activity is 0%.

And the IC50 (Schistosoma mansoni [7])?
Its IC50 is 2700 nM.

What about the IC50 (Schistosoma mansoni [13]) of the same compound?
The IC50 was 800 nM.

What does the source list for `CCCCCCC(=O)N(O)C1CC(=O)C(c2ccc(Cl)cc2)C1=O` (stereo not given)?
IC50 [14]: 2650 nM; IC50 (Histone deacetylase 1): 3.98 µM; IC50 (Histone deacetylase 8 [15]): 5.5 µM; IC50 (Histone deacetylase 8 [16]): 7.69 µM

What does the source list for `CC1(C)CCC[C@]2(C)C(CC[C@@](C)(O)/C=C/c3cccc(Cl)c3)[C@](C)(O)CC[C@@H]12` (stereo not given in full)?
IC50 (Schistosoma mansoni [10]): < 10 µM; IC50 (Schistosoma mansoni [11]): < 10 µM

Which Activity (Schistosoma mansoni [17]) does the source give for `COc1cc(C[C@@H]2C(=O)OC[C@H]2Cc2ccc3c(c2)OCO3)cc(OC)c1OC` here?
Its Activity is over 75%.

Which results are given for `O=C(CCl)NCCOc1ccc(Cl)cc1Cl`?
Activity (Schistosoma mansoni [12]): 1.8%; IC50 (Schistosoma mansoni [7]): 1800 nM; IC50 (Schistosoma mansoni [13]): 3400 nM

What does the source list for `COc1ccc(C(Nc2cc(C)ccn2)c2ccc3ccc(C)nc3c2O)cc1` (stereo not given)?
IC50 [18]: 130 nM; mortality at 10 µM (Schistosoma mansoni [19]): 53%; mortality at 10 µM (Schistosoma japonicum): 56%; mortality at 10 µM (Schistosoma mansoni [20]): 20%; mortality at 10 µM (Schistosoma mansoni [21]): 24%

For `COc1ccc(Oc2ccc([C@H](C)N(C)c3ncc4c(N)nc(N)nc4n3)cc2)cc1`, which Activity (Schistosoma mansoni [6]) is on record?
The Activity was 32.8%.

What about the IC50 (Schistosoma mansoni [7]) of the same compound?
The IC50 was 16700 nM.

And the Activity (Schistosoma haematobium [8])?
Its Activity is 50.9%.

And the IC50 (Schistosoma mansoni [9])?
The IC50 was 7.9 µM.

With `CC1(C)CCC[C@]2(C)C(CC[C@@](C)(O)/C=C/c3ccccc3)[C@](C)(O)CC[C@@H]12` (stereo not given in full) as the compound, how does the IC50 (Schistosoma mansoni [10]) read?
The IC50 was under 10 µM.

And the IC50 (Schistosoma mansoni [11])?
Its IC50 is under 10 µM.

With `OC(c1cc(-c2ccc(C(F)(F)F)cc2)nc(C(F)(F)F)c1)C1CCCCN1` (stereo not given) [ENPIROLINE] as the compound, how does the Activity (Schistosoma mansoni [22]) read?
Its Activity is over 82%.

What does the source list for `COc1ccc([N+](=O)[O-])c(S(=O)(=O)c2ccc(Cl)cc2)n1`?
mortality at 10 µM (Schistosoma haematobium [23]): 48%; IC50 [18]: 60 nM; mortality at 10 µM (Schistosoma mansoni [19]): 67%; mortality at 10 µM (Schistosoma japonicum): 30%; mortality at 10 µM (Schistosoma mansoni [20]): 100%; mortality at 10 µM (Schistosoma mansoni [21]): 57%

Reference: ChEMBL document CHEMBL4811216, “Chemotherapy for human schistosomiasis: how far have we come? What's new? Where do we go from here?” (RSC Med Chem, 2020)
